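Five concentrations, 48 hours, 96-well plates. GI50 = concentration required for 50% inhibition of growth.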 Activity calls are given as the source filed them. No stated cut-off is given here; in the data, active = GI50 up to about 1.1 µM and inactive = higher.
What was measured:
Assay in all cases: NCI tumour cell line growth inhibition, 48 h
K562 = tested on: K562
SK-MEL-5 = tested on: SK-MEL-5
OVCAR-5 = tested on: OVCAR-5
OVCAR-3 = tested on: OVCAR-3
COLO 205 = tested on: COLO 205
M14 = tested on: M14
CAKI-1 = tested on: CAKI-1
Malme-3M = tested on: Malme-3M
SF-295 = tested on: SF-295
SF-268 = tested on: SF-268
RPMI-8226 = tested on: RPMI-8226
SK-MEL-28 = tested on: SK-MEL-28
HCT-15 = tested on: HCT-15
DU-145 = tested on: DU-145
Hs-578T = tested on: Hs-578T
SF-539 = tested on: SF-539
UACC-62 = tested on: UACC-62
SW-620 = tested on: SW-620
NCI-H522 = tested on: NCI-H522
MOLT-4 = tested on: MOLT-4

SMILES | GI50 (K562) | GI50 (SK-MEL-5) | GI50 (OVCAR-5) | GI50 (OVCAR-3) | GI50 (COLO 205) | GI50 (M14) | GI50 (CAKI-1) | GI50 (Malme-3M) | GI50 (SF-295) | GI50 (SF-268) | GI50 (RPMI-8226) | GI50 (SK-MEL-28) | GI50 (HCT-15) [µM] | GI50 (DU-145) | GI50 (Hs-578T) | GI50 (SF-539) | GI50 (UACC-62) | GI50 (SW-620) | GI50 (NCI-H522) | GI50 (MOLT-4)
CC(C)=C[C@H]1C[C@H](C)[C@H]2CC[C@H](C)c3c2c1c(C)c1ncoc31 | 21.4 µM (inactive) | 13.9 µM (inactive) | 16 µM (inactive) | 15.1 µM (inactive) | 16.7 µM (inactive) | 15 µM (inactive) | 18.7 µM (inactive) | 13.5 µM (inactive) | 17 µM (inactive) | 19.5 µM (inactive) | 12.2 µM (inactive) | 18.7 µM (inactive) | 19.1 | 18 µM (inactive) | 17.6 µM (inactive) | 16.4 µM (inactive) | 18.3 µM (inactive) | 15.3 µM (inactive) | 16 µM (inactive) | 14.1 µM (inactive)
OC1c2ccccc2CCC1C(O)(C(F)(F)F)C(F)(F)F (stereo not given) | > 100 µM (inactive) | > 100 µM (inactive) | > 100 µM (inactive) | 58.6 µM (inactive) | > 100 µM (inactive) | > 100 µM (inactive) | > 100 µM (inactive) | > 100 µM (inactive) | > 100 µM (inactive) | > 100 µM (inactive) | > 100 µM (inactive) | > 100 µM (inactive) | > 100 | > 100 µM (inactive) | > 100 µM (inactive) | > 100 µM (inactive) | > 100 µM (inactive) | > 100 µM (inactive) | > 100 µM (inactive) | > 100 µM (inactive)
COC(=O)C1(NC(=O)C(CC(=O)OCc2ccccc2)NC(=O)OCc2ccccc2)CCCCCC1 (stereo not given) | 23.2 µM (inactive) | 15.4 µM (inactive) | 39.2 µM (inactive) | 26.1 µM (inactive) | 21.1 µM (inactive) | > 100 µM (inactive) | 20.8 µM (inactive) | 24.1 µM (inactive) | 34.4 µM (inactive) | 42 µM (inactive) | 3.93 µM (inactive) | 26.3 µM (inactive) | 38.1 | 66.5 µM (inactive) | 15.6 µM (inactive) | 23.1 µM (inactive) | 16.4 µM (inactive) | 42.8 µM (inactive) | 69.3 µM (inactive) | 21.4 µM (inactive)
COc1cc(C(c2ccc3c(c2)OCO3)N2C(=O)CCC2C(=O)O)cc(OC)c1OC (stereo not given) | > 100 µM (inactive) | > 100 µM (inactive) | > 100 µM (inactive) | > 100 µM (inactive) | > 100 µM (inactive) | > 100 µM (inactive) | > 100 µM (inactive) | > 100 µM (inactive) | > 100 µM (inactive) | > 100 µM (inactive) | > 100 µM (inactive) | > 100 µM (inactive) | > 100 | > 100 µM (inactive) | > 100 µM (inactive) | > 100 µM (inactive) | > 100 µM (inactive) | > 100 µM (inactive) | > 100 µM (inactive) | > 100 µM (inactive)
COc1ccc(-n2c3c(c4c(CN(C)C)c(O)ccc42)C(=O)c2ccccc2C3=O)cc1 | 2.09 µM (inactive) | 1.69 µM (inactive) | 4.92 µM (inactive) | 13.5 µM (inactive) | 8.09 µM (inactive) | 3.54 µM (inactive) | 14.2 µM (inactive) | 11.4 µM (inactive) | 14.7 µM (inactive) | 10.1 µM (inactive) | 2.17 µM (inactive) | 3.38 µM (inactive) | 3.1 | 12.9 µM (inactive) | 30.5 µM (inactive) | 2.04 µM (inactive) | 4.41 µM (inactive) | 2.07 µM (inactive) | 12.3 µM (inactive) | 3 µM (inactive)

Reference: ChEMBL document CHEMBL1201862, “PubChem BioAssay data set” (2004)
